One may read the IC50 as the point on the concentration scale where inhibition reaches its midpoint. The low end stands for greater potency in that assay, the high end for weaker potency in that assay.

SMILES strings stand for the structures.

A short description of the assay: Inhibition of R1881-stimulated AR transcription driven human LNCaP cells proliferation preincubated for 1 hr followed by R1881 addition and measured after 4 days by Alamar blue assay.

Consider `CCC(=O)N[C@H](C[C@H](C)C(Cl)(Cl)Cl)C(=O)N1C(=O)C=C(OC)[C@@H]1C[C@H](C)C(Cl)Cl`, for which inhibition was half-maximal at 14 µM (IC50).

These data come from BindingDB's records for doi:10.1021/acs.jnatprod.0c00921 (Bc Cancer, 2021).
